Assay: xn = mol fraction of the nth substance listed
Conditions: for viscosity: 100 kPa, Falling or rolling sphere viscometry; for viscosity / speed of sound / mass density: Liquid; for speed of sound / mass density: 101 kPa; for speed of sound: Sing-around technique in a fixed-path interferometer; for mass density: Vibrating tube method; for surface tension liquid-gas: 294.4 K, Pendant drop shape

CC(C)CC(C)(C)C [2,2,4-trimethylpentane] + CCCCCCC
Conditions	mass density [kg/m3]	speed of sound [m/s]	viscosity [mPa·s]
293.15 K, x1 = 0.1	684.83	1146.5	0.416
293.15 K, x1 = 0.2001	685.71	1141.7	0.423
293.15 K, x1 = 0.2999	686.59	1136.6	0.43
293.15 K, x1 = 0.4001	687.45	1131.6	0.438
293.15 K, x1 = 0.5001	688.28	1127	0.447
293.15 K, x1 = 0.6	689.06	1122	0.456
293.15 K, x1 = 0.6999	689.77	1117.2	0.466
293.15 K, x1 = 0.8	690.5	1112.5	0.477
293.15 K, x1 = 0.9	691.17	1107.7	0.488
293.15 K, x1 = 1	691.84	1103.2	0.501
298.15 K, x1 = 0.1	680.61	1125.3	0.394
298.15 K, x1 = 0.2001	681.5	1120.5	0.4
298.15 K, x1 = 0.2999	682.4	1115.5	0.407
298.15 K, x1 = 0.4001	683.27	1110.5	0.415
298.15 K, x1 = 0.5001	684.12	1105.9	0.423
298.15 K, x1 = 0.6	684.91	1101	0.432
298.15 K, x1 = 0.6999	685.63	1096.2	0.441
298.15 K, x1 = 0.8	686.36	1091.6	0.451
298.15 K, x1 = 0.9	687.05	1086.7	0.462
298.15 K, x1 = 1	687.7	1082	0.473
303.15 K, x1 = 0.1	676.36	1103.9	0.373
303.15 K, x1 = 0.2001	677.27	1099.2	0.379
303.15 K, x1 = 0.2999	678.18	1094.2	0.386
303.15 K, x1 = 0.4001	679.07	1089.3	0.393
303.15 K, x1 = 0.5001	679.93	1084.7	0.4
303.15 K, x1 = 0.6	680.73	1079.9	0.408
303.15 K, x1 = 0.6999	681.46	1075.1	0.417
303.15 K, x1 = 0.8	682.2	1070.5	0.426
303.15 K, x1 = 0.9	682.89	1065.8	0.436
303.15 K, x1 = 1	683.59	1061.4	0.447
308.15 K, x1 = 0.1	672.09	1082.7	0.355
308.15 K, x1 = 0.2001	673.01	1078	0.36
308.15 K, x1 = 0.2999	673.93	1073.1	0.366
308.15 K, x1 = 0.4001	674.83	1068.2	0.373
308.15 K, x1 = 0.5001	675.71	1063.7	0.38
308.15 K, x1 = 0.6	676.52	1058.9	0.387
308.15 K, x1 = 0.6999	677.26	1054.2	0.396
308.15 K, x1 = 0.8	678.02	1049.7	0.404
308.15 K, x1 = 0.9	678.72	1045	0.413
308.15 K, x1 = 1	679.4	1040.4	0.423
313.15 K, x1 = 0.1	667.78	1061.7	–
313.15 K, x1 = 0.2001	668.71	1057	–
313.15 K, x1 = 0.2999	669.65	1052.2	–
313.15 K, x1 = 0.4001	670.57	1047.3	–
313.15 K, x1 = 0.5001	671.46	1042.8	–
313.15 K, x1 = 0.6	672.28	1038.1	–
313.15 K, x1 = 0.6999	673.03	1033.5	–
313.15 K, x1 = 0.8	673.8	1029	–
313.15 K, x1 = 0.9	674.52	1024.3	–
313.15 K, x1 = 1	675.23	1020	–
318.15 K, x1 = 0.1	663.44	1040.7	0.32
318.15 K, x1 = 0.2001	664.39	1036.1	0.325
318.15 K, x1 = 0.2999	665.34	1031.3	0.33
318.15 K, x1 = 0.4001	666.28	1026.5	0.336
318.15 K, x1 = 0.5001	667.18	1022.1	0.343
318.15 K, x1 = 0.6	668.02	1017.4	0.349
318.15 K, x1 = 0.6999	668.78	1012.8	0.356
318.15 K, x1 = 0.8	669.55	1008.4	0.363
318.15 K, x1 = 0.9	670.28	1003.8	0.372
318.15 K, x1 = 1	670.98	999.3	0.38
323.15 K, x1 = 0.1	659.07	1019.8	0.305
323.15 K, x1 = 0.2001	660.04	1015.2	0.309
323.15 K, x1 = 0.2999	661	1010.5	0.314
323.15 K, x1 = 0.4001	661.95	1005.7	0.32
323.15 K, x1 = 0.5001	662.86	1001.4	0.326
323.15 K, x1 = 0.6	663.71	996.8	0.332
323.15 K, x1 = 0.6999	664.49	992.3	0.338
323.15 K, x1 = 0.8	665.28	987.9	0.345
323.15 K, x1 = 0.9	666.02	983.3	0.353
323.15 K, x1 = 1	666.75	979.2	0.361
328.15 K, x1 = 0.1	654.65	999	0.291
328.15 K, x1 = 0.2001	655.64	994.4	0.295
328.15 K, x1 = 0.2999	656.61	989.8	0.3
328.15 K, x1 = 0.4001	657.59	985.1	0.305
328.15 K, x1 = 0.5001	658.52	980.8	0.311
328.15 K, x1 = 0.6	659.37	976.3	0.316
328.15 K, x1 = 0.6999	660.16	971.8	0.323
328.15 K, x1 = 0.8	660.98	967.4	0.329
328.15 K, x1 = 0.9	661.73	963	0.335
328.15 K, x1 = 1	662.44	958.7	0.343
333.15 K, x1 = 0.1	650.21	978.3	0.276
333.15 K, x1 = 0.2001	651.22	973.9	0.28
333.15 K, x1 = 0.2999	652.2	969.2	0.286
333.15 K, x1 = 0.4001	653.19	964.6	0.29
333.15 K, x1 = 0.5001	654.14	960.4	0.294
333.15 K, x1 = 0.6	655.01	955.8	0.3
333.15 K, x1 = 0.6999	655.81	951.6	0.306
333.15 K, x1 = 0.8	656.64	947.3	0.313
333.15 K, x1 = 0.9	657.4	942.9	0.319
333.15 K, x1 = 1	658.16	938.6	0.326
338.15 K, x1 = 0.1	645.76	957.8	–
338.15 K, x1 = 0.2001	646.75	953.3	–
338.15 K, x1 = 0.2999	647.77	948.7	–
338.15 K, x1 = 0.4001	648.75	944.3	–
338.15 K, x1 = 0.5001	649.71	940.1	–
338.15 K, x1 = 0.6	650.6	935.8	–
338.15 K, x1 = 0.6999	651.41	931.3	–
338.15 K, x1 = 0.8	652.29	927.2	–
338.15 K, x1 = 0.9	653.03	922.9	–
338.15 K, x1 = 1	653.8	918.7	–
343.15 K, x1 = 1	649.4	899	–

Conditions	surface tension liquid-gas [mN/m]
x1 = 0.1	19.9
x1 = 0.2001	19.7
x1 = 0.2999	19.5
x1 = 0.4001	19.4
x1 = 0.5001	19.2
x1 = 0.6999	19
x1 = 0.8	18.9
x1 = 1	18.7

— the NIST ThermoML archive (doi:10.1021/je5007532)
